Laboratory results reported in article PMC5577105, “A New Chimeric Natriuretic Peptide, CNAAC, for the Treatment of Left Ventricular Dysfunction after Myocardial Infarction” (Scientific Reports, 2017).

Experiments:
[1] = design: method as in PMID 18205700; settings: in circulation; cited from earlier work
[2] = test system: myocardial infarction rats (left anterior descending coronary artery ligation); assay: Serum humoral factors by ELISA after myocardial infarction; format: in vivo; settings: NP 20 nmol/kg i.p. every 2 days for 4 weeks, rat ELISA, n = 6
Description: (§1) 0.85% NaCl; 20 nmol/kg·2d; n = 6). The Sham and MI animal model were established as described by Johns TN et al.[24], [25] […] The chest was closed immediately. Only a thoracotomy and closure were performed in the sham group. From the day of surgery, 0.85% NaCl or NPs (20 nmol/kg) were administered to these groups (i.p), one injection every two days and lasted for four weeks. Four weeks later, the cardiac function was measured by Doppler echocardiography under anesthesia with pentobarbital sodium (40 mg/kg i.p.). A 12 MHz linear probe (Vevo2100, VisualSonics, Inc., CAN) was used to perform the transthoracic echocardiography. Left ventricular (LV) ejection fraction (EF), LV fraction shortening (FS), LV end diastolic diameter (LVEDd), and left ventricular end systolic diameter (LVESd) were measured. All examinations were performed in a blinded state. Blood samples were centrifuged (4000 rpm, 15 min) and the serum was separated. Serum BNP, Ang II, ALD, ET-1, cGMP levels were detected with rat ELISA kits (Lianshuo, Shanghai, China).

[3] = test system: myocardial infarction rats (left anterior descending coronary artery ligation); assay: Tissue weights / cardiac hypertrophy after myocardial infarction; format: in vivo, rat; settings: MI rats, NP 20 nmol/kg i.p. every 2 days for 4 weeks; mean ± SEM, n = 6
Description: as §1, with “The” for “0.85% NaCl; 20 nmol/kg·2d; n = 6). The”, “state.” for “state. Blood samples were centrifuged (4000 rpm, 15 min) and the serum was separated. Serum BNP, Ang II, ALD, ET-1, cGMP levels were detected with rat ELISA kits (Lianshuo, Shanghai, China).”
(§2) The day after echocardiography was performed; rats in each group were weighed and anesthetized via a peritoneal injection of pentobarbital sodium (40 mg/kg i.p.). Supplemental doses of sodium pentobarbital were given when needed to maintain uniform anesthesia. A micro catheter was inserted into the left ventricle through the right […], and left ventricular systolic pressure (LVSP), left ventricular end diastolic pressure (LVEDP), and ± dp/dtmax were recorded by the BL-420F BioData Acquisition & Analysis Systems (TME Technology Co, Ltd, Chengdu, China). At the end of the experiment, blood was sampled and the following parameters were recorded: heart weight (HW), left ventricle weight (LVW), and lung weight (LW).

[4] = test system: myocardial infarction rats (left anterior descending coronary artery ligation); assay: Cardiac hemodynamics after myocardial infarction; format: in vivo, rat; settings: MI rats, NP 20 nmol/kg i.p. every 2 days for 4 weeks, anesthetized, LV catheter, mean ± SEM, n = 6; for +dp/dtmax / −dp/dtmax: in mmHg/s
Description: as §1, with “The” for “0.85% NaCl; 20 nmol/kg·2d; n = 6). The”, “state.” for “state. Blood samples were centrifuged (4000 rpm, 15 min) and the serum was separated. Serum BNP, Ang II, ALD, ET-1, cGMP levels were detected with rat ELISA kits (Lianshuo, Shanghai, China).”
as §2

[5] = rat, in vivo, iv
Description: To determine the metabolic status of NPs in circulation, blood was collected from rats after a bolus injection of NPs. Rats were anesthetized with pentobarbital sodium (40 mg/kg i.p). One microcatheter was inserted into the left jugular vein to administer NPs, and another one was inserted into the right carotid artery to collect blood. After the surgery was completed, rats were allowed to stabilize for 15 min. Human ANP, CNP, VNP, or CNAAC at a concentration of 40 nmol/kg was administered in a bolus fashion (0.1 ml). Blood (0.5 ml) was sampled 5, 10, 20, and 30 min after the bolus injection. The samples from the plasma were analyzed using LT-20AT High-Performance-Liquid-Chromatography (HPLC) (Shimadzu, Tokyo, Japan). A linear gradient (Buffer A: acetonitrile with 0.05% trifluoroacetic acid; Buffer B: double distilled water with 0.05% trifluoroacetic acid)[36] was used for both analyses to separate peptides on an Inertsil OSD-3 (250 mm × 4.6 mm, 5 µm) chromatographic column (Shimadzu, Tokyo, Japan) and a Water Quatro-premier tandem quadrupole mass spectrometry and Alliance 2695 chromatographic system (Waters, Milford, Massachusetts, USA). Peak areas have been calculated with the Masslynx 4.1 software from Waters. […] Each experiment was conducted in duplicate, whereby duplicates are defined as two different vials.

brain natriuretic peptide [BNP]
circulating half-life [1]: approximately 23 min

C-type natriuretic peptide [CNP]
serum level of Ang II, change vs. MI group [2]: decreased | serum level of ET-1, change vs. MI group [2]: decreased | serum level of cGMP, change vs. MI group [2]: increased | BW (body weight) [3]: 347 ± 10 g | HW (heart weight) [3]: 1072 ± 84 mg | LVW (left ventricular weight) [3]: 492 ± 24 mg | LW (lung weight) [3]: 2190 ± 149 mg | Heart rate [4]: 443 ± 21 bpm | LVEDP [4]: 6.5 ± 1.5 mm Hg | LVSP [4]: 122.7 ± 4.8 mm Hg | +dp/dtmax [4]: 4025 ± 289 | −dp/dtmax [4]: 3917 ± 250

atrial natriuretic peptide [ANP]
serum level of ALD, change vs. MI group [2]: decreased | serum level of Ang II, change vs. MI group [2]: decreased | serum level of ET-1, change vs. MI group [2]: decreased | serum level of cGMP, change vs. MI group [2]: increased | BW (body weight) [3]: 362 ± 8 g | HW (heart weight) [3]: 1010 ± 39 mg | LVW (left ventricular weight) [3]: 492 ± 24 mg | LW (lung weight) [3]: 2094 ± 188 mg | Heart rate [4]: 437 ± 15 bpm | LVEDP [4]: 7.2 ± 1.8 mm Hg | LVSP [4]: 112.5 ± 3.9 mm Hg | +dp/dtmax [4]: 3651 ± 320 | −dp/dtmax [4]: 3424 ± 453 | NP remaining at 10 min [5]: 32.7% | NP remaining at 20 min [5]: Less than 10% | NP remaining at 30 min [5]: completely degraded
